US20190345146A1, “NITROGEN CONTAINING BICYCLIC DERIVATIVES FOR TREATING PAIN AND PAIN RELATED CONDITIONS” (ESTEVE PHARMACEUTICALS, S.A., priority 2016, published 2019)

Target: human α2δ-1 subunit of Cav2.2 calcium channel (Homo sapiens, UniProt P54289)
Experiment: Binding assay to human α2δ-1 subunit of Cav2.2 calcium channel ([3H]-Gabapentin)
Conditions: Table 1, human α2δ-1 enriched membranes, read-out: Ki(nM) alpha2delta Hum
Description: • Binding assay to human α2δ-1 subunit of Cav2.2 calcium channel.
Human α2δ-1 enriched membranes (2.5 μg) were incubated with 15 nM of radiolabeled [3H]-Gabapentin in assay buffer containing Hepes-KOH 10 mM, pH 7.4.
NSB (non specific binding) was measured by adding 10 μM pregabalin. The binding of the test compound was measured at five different concentrations. After 60 min of incubation at 27° C., the binding reaction was terminated by filtering through Multiscreen GF/C (Millipore) presoaked in 0.5% polyethyleneimine in Vacuum Manifold Station, followed by 3 washes with ice-cold filtration buffer containing 50 mM Tris-HCl, pH 7.4.
Filter plates were dried at 60° C. for 1 h and 30 μl of scintillation cocktail were added to each well before radioactivity reading.
Readings were performed in a Trilux 1450 Microbeta radioactive counter (Perkin Elmer). • Binding assay to human norepinephrine transporter (NET).

human α2δ-1 subunit of Cav2.2 calcium channel, sequence (P54289 25-1103): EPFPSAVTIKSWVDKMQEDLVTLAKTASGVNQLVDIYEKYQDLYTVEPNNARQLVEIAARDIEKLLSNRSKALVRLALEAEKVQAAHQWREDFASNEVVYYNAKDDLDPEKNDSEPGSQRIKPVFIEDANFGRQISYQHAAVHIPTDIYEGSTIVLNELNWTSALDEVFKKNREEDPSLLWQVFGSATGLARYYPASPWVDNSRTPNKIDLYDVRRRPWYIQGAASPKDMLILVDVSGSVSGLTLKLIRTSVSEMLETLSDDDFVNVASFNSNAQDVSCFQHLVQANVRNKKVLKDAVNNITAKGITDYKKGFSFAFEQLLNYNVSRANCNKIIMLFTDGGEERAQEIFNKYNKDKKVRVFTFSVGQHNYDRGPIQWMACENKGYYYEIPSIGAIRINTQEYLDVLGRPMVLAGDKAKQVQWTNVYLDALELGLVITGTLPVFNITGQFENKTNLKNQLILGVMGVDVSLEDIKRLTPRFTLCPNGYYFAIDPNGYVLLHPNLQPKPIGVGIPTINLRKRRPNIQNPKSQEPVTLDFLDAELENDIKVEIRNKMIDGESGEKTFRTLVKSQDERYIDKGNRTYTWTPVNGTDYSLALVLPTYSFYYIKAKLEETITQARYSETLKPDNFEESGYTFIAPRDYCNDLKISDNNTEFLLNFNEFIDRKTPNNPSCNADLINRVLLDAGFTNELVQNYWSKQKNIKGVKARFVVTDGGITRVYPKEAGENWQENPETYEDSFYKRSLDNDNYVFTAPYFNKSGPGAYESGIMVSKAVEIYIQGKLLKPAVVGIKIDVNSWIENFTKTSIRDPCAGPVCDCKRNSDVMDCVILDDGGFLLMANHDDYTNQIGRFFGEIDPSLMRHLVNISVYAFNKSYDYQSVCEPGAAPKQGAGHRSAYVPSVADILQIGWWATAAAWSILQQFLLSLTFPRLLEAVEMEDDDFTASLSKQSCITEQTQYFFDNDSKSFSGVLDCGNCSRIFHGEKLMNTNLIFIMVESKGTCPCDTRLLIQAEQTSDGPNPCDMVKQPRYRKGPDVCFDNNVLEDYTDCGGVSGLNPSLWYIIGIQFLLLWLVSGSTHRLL

Row | Compound | Ki [nM]
1 | CCNCC[C@H](Oc1cccc2ncn(C)c(=O)c12)c1cccs1 [Example 36, (S)-5-(3-(ethylamino)-1-(thiophen-2-yl)propoxy)-3-methylquinazolin-4(3H)-one] | ≥ 3000
2 | CNCC[C@H](Oc1cccc2c1CCN(C)C2)c1cccs1 [Example 25, (S)—N-methyl-3-((2-methyl-1,2,3,4-tetrahydroisoquinolin-5-yl)oxy)-3-(thiophen-2-yl)propan-1-amine] | 100 to 500
3 | CNCC[C@@H](Oc1cccc2c1CCN(C)C2)c1cccs1 [Example 26, (R)—N-methyl-3-((2-methyl-1,2,3,4-tetrahydroisoquinolin-5-yl)oxy)-3-(thiophen-2-yl)propan-1-amine] | < 100
4 | CCNCC[C@H](Oc1cccc2ncncc12)c1cccs1 [Example 38, (S)-N-ethyl-3-(quinazolin-5-yloxy)-3-(thiophen-2-yl)propan-1-amine] | 500 to 3000
5 | CNCCC(Oc1cccc2c1CCN(C)C2)c1cccs1 (stereo not shown) [Example 2, N-methyl-3-((2-methyl-1,2,3,4-tetrahydroisoquinolin-5-yl)oxy)-3-(thiophen-2-yl)propan-1-amine] | < 100
6 | CNCCC(OCc1cccc2ccncc12)c1ccccc1 (stereo not shown) [Example 18, 3-(isoquinolin-8-ylmethoxy)-N-methyl-3-phenylpropan-1-amine] | ≥ 3000
7 | CNCCC(OCc1cccc2ncccc12)c1ccccc1 (stereo not shown) [Example 19, N-methyl-3-phenyl-3-(quinolin-5-ylmethoxy)propan-1-amine] | ≥ 3000
8 | CNCCC(Oc1cccc2ncn(C)c(=O)c12)c1cccs1 (stereo not shown) [Example 7, 3-methyl-5-(3-(methylamino)-1-(thiophen-2-yl)propoxy)quinazolin-4(3H)-one] | 100 to 500
9 | CNCCC(OCc1cccc2ncccc12)c1cccs1 (stereo not shown) [Example 22, N-methyl-3-(quinolin-5-ylmethoxy)-3-(thiophen-2-yl)propan-1-amine] | ≥ 3000
10 | CNCC[C@H](Oc1cccc2c1CCCN2C)c1cccs1 [Example 23, (S)—N-methyl-3-((1-methyl-1,2,3,4-tetrahydroquinolin-5-yl)oxy)-3-(thiophen-2-yl)propan-1-amine] | 500 to 3000
11 | CCNCCC(Oc1cccc2cnncc12)c1cccs1 (stereo not shown) [Example 12, N-ethyl-3-(phthalazin-5-yloxy)-3-(thiophen-2-yl)propan-1-amine] | 100 to 500
12 | CCNCC[C@@H](Oc1cccc2cnncc12)c1ccccc1 [Example 13, (R)-N-ethyl-3-phenyl-3-(phthalazin-5-yloxy)propan-1-amine] | 500 to 3000
13 | CNCC[C@H](Oc1cccc2cnncc12)c1cccs1 [Example 5, (S)-N-methyl-3-(phthalazin-5-yloxy)-3-(thiophen-2-yl)propan-1-amine] | ≥ 3000

Results, then the compound that gave them:

Row | Ki [nM] | Compound
14 | < 100 | CNCC[C@@H](Oc1cccc2ncncc12)c1cccs1 [Example 37, (R)-N-methyl-3-(quinazolin-5-yloxy)-3-(thiophen-2-yl)propan-1-amine]
15 | < 100 | CCNCC[C@@H](Oc1cccc2ncn(C)c(=O)c12)c1cccs1 [Example 30, (R)-5-(3-(ethylamino)-1-(thiophen-2-yl)propoxy)-3-methylquinazolin-4(3H)-one]
16 | 100 to 500 | CCNCC[C@@H](Oc1cc(C)cc2c(=O)n(C)cnc12)c1cccs1 [Example 44, (R)-8-(3-(ethylamino)-1-(thiophen-2-yl)propoxy)-3,6-dimethylquinazolin-4(3H)-one]
17 | 100 to 500 | CCNCC[C@@H](Oc1cccc2c(=O)n(C)cnc12)c1cccs1 [Example 32, (R)-8-(3-(ethylamino)-1-(thiophen-2-yl)propoxy)-3-methylquinazolin-4(3H)-one]
18 | < 100 | CCNCC[C@@H](Oc1cccc2cnncc12)c1cccs1 [Example 14, (R)-N-ethyl-3-(phthalazin-5-yloxy)-3-(thiophen-2-yl)propan-1-amine]
19 | 100 to 500 | CNCC[C@@H](Oc1cccc2cnncc12)c1cccs1 [Example 4, (R)—N-Methyl-3-(phthalazin-5-yloxy)-3-(thiophen-2-yl)propan-1-amine]
